One experiment addresses hM3 muscarinic receptor (Homo sapiens (Human), UniProt P20309). The experiment is described as follows: Radioligand binding assay for muscarinic receptors ([3H]-NMS displacement, CHO cell membranes). Put shortly: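 [3H]-NMS displacement used homogenized CHO membranes, with test compounds at final concentrations of […]. Plates were incubated 6 hours at 37 °C, then filtered and read by liquid scintillation counting. A one-site competition fit gave values that were converted to Ki.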

A further experiment deals with hβ2 adrenergic receptor (Homo sapiens (Human), UniProt P07550). The experiment is described as follows: Assay for determining adrenergic receptor agonist potency (cAMP Flashplate, HEK-293 cells). Type of experiment: cell-based. As to conditions: data rounded to nearest 1 nM.
Sequence of hβ2 adrenergic receptor (P07550 whole entry): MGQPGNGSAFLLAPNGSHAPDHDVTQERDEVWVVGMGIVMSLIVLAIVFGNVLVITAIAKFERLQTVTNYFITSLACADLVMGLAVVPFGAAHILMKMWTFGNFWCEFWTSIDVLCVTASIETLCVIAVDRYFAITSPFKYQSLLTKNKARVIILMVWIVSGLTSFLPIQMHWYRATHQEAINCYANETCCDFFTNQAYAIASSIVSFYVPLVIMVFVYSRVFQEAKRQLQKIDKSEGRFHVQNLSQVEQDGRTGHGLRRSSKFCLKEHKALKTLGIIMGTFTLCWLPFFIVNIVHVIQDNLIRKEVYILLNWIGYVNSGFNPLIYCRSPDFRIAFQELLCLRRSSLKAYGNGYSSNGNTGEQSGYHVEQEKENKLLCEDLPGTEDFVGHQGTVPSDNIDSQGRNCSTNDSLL
Experiment [1] concerns MCh-induced bronchoconstriction. The experiment is described as follows: Einthoven assay: bronchoprotection against methacholine (MCh)-induced bronchoconstriction. Type of experiment: in vivo, rat. Particulars: rat, 100 μg by inhalation, 24 h after administration; for inhibition in vivo at 0.1 mg: inhaled or nasal, read-out: Broncho. at 24 h. Put shortly:
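Male Sprague-Dawley rats received 100 μg compound (unless stated) or water vehicle by 10-min inhalation. At set times, anesthetized, ventilated rats were challenged with IV MCh at 40 and 80 μg/kg (2.5-min infusions). Ventilation-pressure rise is expressed as % inhibition versus vehicle controls.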

[2] abbreviates: hM3 Muscarinic Receptor Binding, data rounded to nearest 0.1 nM.

The values below come from US8551978B2 (Theravance, Inc., priority 2009, dated 2013).

Molecules are shown by their SMILES. Read-outs that look alike come from different tables or passages of the source.

Sequence of hM3 muscarinic receptor (P20309 whole entry): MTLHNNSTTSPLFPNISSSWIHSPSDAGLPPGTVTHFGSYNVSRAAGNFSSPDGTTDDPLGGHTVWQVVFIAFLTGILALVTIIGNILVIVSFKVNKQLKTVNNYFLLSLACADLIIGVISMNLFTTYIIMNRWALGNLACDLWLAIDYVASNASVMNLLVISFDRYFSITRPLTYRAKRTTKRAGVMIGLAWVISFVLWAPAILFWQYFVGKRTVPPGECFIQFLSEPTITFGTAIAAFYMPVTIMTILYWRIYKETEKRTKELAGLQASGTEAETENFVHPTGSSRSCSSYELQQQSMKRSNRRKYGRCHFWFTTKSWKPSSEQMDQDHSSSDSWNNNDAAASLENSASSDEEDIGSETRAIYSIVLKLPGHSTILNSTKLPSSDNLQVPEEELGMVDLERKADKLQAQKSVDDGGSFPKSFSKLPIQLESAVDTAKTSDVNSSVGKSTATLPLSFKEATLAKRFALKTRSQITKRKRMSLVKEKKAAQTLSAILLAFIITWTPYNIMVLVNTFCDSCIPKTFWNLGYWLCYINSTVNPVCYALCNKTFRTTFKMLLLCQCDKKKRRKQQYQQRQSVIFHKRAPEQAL

As for `CC(Cc1cccc(CC(=O)NCc2ccc(N(C)C(=O)CCN3CCC(OC(=O)Nc4ccccc4-c4ccccc4)CC3)cc2)c1)NC[C@H](O)c1ccc(O)c2[nH]c(=O)ccc12` (stereo partly drawn) [Compound I-77], the Ki on hM3 muscarinic receptor was determined as 0.1 nM. The molecule further gave an EC50 on hβ2 adrenergic receptor of 1 nM. Besides, in experiment [1], the inhibition in vivo at 0.1 mg was above 30%.

On hM3 muscarinic receptor, `Cc1cc(CNC[C@H](O)c2ccc(O)c3[nH]c(=O)ccc23)ccc1NC(=O)CCCN(C)C(=O)CCN1CCC(OC(=O)Nc2ccccc2-c2ccccc2)CC1` [Compound I-2] returned a Ki of 0.1 nM. Also, the EC50 at hβ2 adrenergic receptor turned out to be 1 nM. Besides, in experiment [1], the “Broncho. at 24 h” value is given as “No”.

For `COc1cc(CNC[C@H](O)c2ccc(O)c3[nH]c(=O)ccc23)ccc1NC(=O)CCCCN(C)C(=O)CCN1CCC(OC(=O)Nc2ccccc2-c2ccccc2)CC1` [Compound I-16], the Ki at hM3 muscarinic receptor was 0.1 nM. At hβ2 adrenergic receptor, this molecule gave an EC50 of 1 nM. For the same molecule, the inhibition in vivo at 0.1 mg in experiment [1] was above 30%.

On hM3 muscarinic receptor, `Cc1ccc(C(=O)Nc2cccc(CC(C)NC[C@H](O)c3ccc(O)c4[nH]c(=O)ccc34)c2)cc1N(C)C(=O)CCN1CCC(OC(=O)Nc2ccccc2-c2ccccc2)CC1` (stereo partly drawn) [Compound I-37] came in with an inhibition constant Ki of 0.2 nM. Further, the concentration for a half-maximal effect (EC50) at hβ2 adrenergic receptor was determined as 1 nM. In addition, in experiment [1], the “Broncho. at 24 h” value is given as “No”.

As for `Cc1ccc(C(=O)Nc2ccc(CC(C)NC[C@H](O)c3ccc(O)c4[nH]c(=O)ccc34)cc2)cc1N(C)C(=O)CCN1CCC(OC(=O)Nc2ccccc2-c2ccccc2)CC1` (stereo partly drawn) [Compound I-41], the inhibitory constant (Ki) at hM3 muscarinic receptor (setting [2]) amounted to 0.3 nM. The molecule also displayed a half-maximal effective concentration (EC50) on hβ2 adrenergic receptor of 1 nM. For the same molecule, in experiment [1], the “Broncho. at 24 h” value is recorded as “No”.

For the molecule `C[C@H](Cc1cccc(NC(=O)c2cccc(N(C)C(=O)CCN3CCC(OC(=O)Nc4ccccc4-c4ccccc4)CC3)c2)c1)NC[C@H](O)c1ccc(O)c2[nH]c(=O)ccc12` [Compound I-38], the Ki at hM3 muscarinic receptor was determined as 0.2 nM. The same molecule gave an EC50 on hβ2 adrenergic receptor of 1 nM. The “Broncho. at 24 h” value in experiment [1] was “No”.

Turning to `C[C@H](Cc1cccc(CCC(=O)NCc2ccc(N(C)C(=O)CCN3CCC(OC(=O)Nc4ccccc4-c4ccccc4)CC3)cc2)c1)NC[C@H](O)c1ccc(O)c2[nH]c(=O)ccc12` [Compound I-92], the affinity at hM3 muscarinic receptor corresponds to a Ki of 0.2 nM. This molecule also yielded an EC50 at hβ2 adrenergic receptor of 1 nM. The inhibition in vivo at 0.1 mg in experiment [1] was above 30%.

The molecule `CC(Cc1cccc(CC(=O)Nc2cccc(N(C)C(=O)CCN3CCC(OC(=O)Nc4ccccc4-c4ccccc4)CC3)c2)c1)NC[C@H](O)c1ccc(O)c2[nH]c(=O)ccc12` (stereo partly drawn) [Compound I-52] came in with a Ki at hM3 muscarinic receptor of 0.2 nM. Moreover, the EC50 at hβ2 adrenergic receptor came to 1 nM. For the same molecule, the “Broncho. at 24 h” value in experiment [1] is reported as “No”.

Molecule `CC(Cc1ccc(CNC(=O)Cc2ccc(N(C)C(=O)CCN3CCC(OC(=O)Nc4ccccc4-c4ccccc4)CC3)cc2)cc1)NC[C@H](O)c1ccc(O)c2[nH]c(=O)ccc12` (stereo partly drawn) [Compound I-66] showed a Ki on hM3 muscarinic receptor of 0.2 nM. On hβ2 adrenergic receptor, the EC50 was 1 nM. Moreover, the “Broncho. at 24 h” value in experiment [1] is reported as “No”.

For `CC(Cc1ccc(CNC(=O)c2cccc(N(C)C(=O)CCN3CCC(OC(=O)Nc4ccccc4-c4ccccc4)CC3)c2)cc1)NC[C@H](O)c1ccc(O)c2[nH]c(=O)ccc12` (stereo partly drawn) [Compound I-46], on hM3 muscarinic receptor, the affinity corresponds to a Ki of 0.1 nM. On hβ2 adrenergic receptor, this molecule registered an EC50 of 1 nM. Moreover, the inhibition in vivo at 0.1 mg in experiment [1] is above 30%.

`COc1cc(CNC[C@H](O)c2ccc(O)c3[nH]c(=O)ccc23)ccc1NC(=O)c1cccc(N(C)C(=O)CCN2CCC(OC(=O)Nc3ccccc3-c3ccccc3)CC2)c1` [Compound I-29]: on hM3 muscarinic receptor (setting [2]), the affinity corresponds to a Ki of 0.1 nM. This molecule yielded a concentration giving a half-maximal response (EC50) at hβ2 adrenergic receptor of 1 nM. In addition, the “Broncho. at 24 h” value in experiment [1] was “No”.

Molecule `C[C@@H](Cc1ccc(CNC(=O)c2cccc(N(C)C(=O)CCN3CCC(OC(=O)Nc4ccccc4-c4ccccc4)CC3)c2)cc1)NC[C@H](O)c1ccc(O)c2[nH]c(=O)ccc12` [Compound I-49] gave a Ki at hM3 muscarinic receptor of 0.1 nM. This molecule gave an EC50 on hβ2 adrenergic receptor of 1 nM. Also, in experiment [1], the inhibition in vivo at 0.1 mg was above 30%.

In turn, `COc1ccc(CC(=O)NCc2ccc(N(C)C(=O)CCN3CCC(OC(=O)Nc4ccccc4-c4ccccc4)CC3)cc2)cc1C[C@H](C)NC[C@H](O)c1ccc(O)c2[nH]c(=O)ccc12` [Compound I-83] returned a Ki at hM3 muscarinic receptor (setting [2]) of 0.2 nM. The EC50 on hβ2 adrenergic receptor was determined as 2 nM. Moreover, in experiment [1], the inhibition in vivo at 0.1 mg is above 30%.

One may read the Ki as a measure of affinity in units of concentration, obtained from inhibition or displacement. Higher therefore signals weaker binding. Usually EC50 stands for the concentration that produces a half-maximal response.
